Results: patent US20260306463A1, “SIK INHIBITORS TO TREAT CHRONIC KIDNEY DISEASE” (The General Hospital Corporation, priority 2023, published 2026)

How the values were obtained:
[1] = system: renal fibrosis, adenine-induced CKD mice; assay: renal fibrosis in adenine CKD mice (trichrome, immunoblot, RT-qPCR); type: in vivo, mouse
Method: FIGS. 3A-3C. SK-124 treatment reduces fibrosis in adenine-induced chronic kidney disease. (A) Representative trichrome stained sections from the indicated groups. Darker staining indicates fibrosis which is increased in vehicle-treated adenine diet mice and reduced by SK-124 treatment. (B) Kidney protein lysates were isolated and analyzed by immunoblotting for alpha-smooth muscle actin (αSMA) (top) and GAPDH (bottom). (C) Whole kidney RNA from the indicated groups was analyzed by RT-qPCR for the indicated fibrosis marker.
7-week-old female CD1 mice were obtained from Charles River Laboratories (Wilmington, MA) and were fed on 0.2% adenine containing diet (TD.130900; 0.2% Adenine, 0.9% Phosphate, 0.5% Calcium; Envigo) or control diet (TD. 96348) for 6 or 8 weeks to induce chronic kidney disease (CKD). Mice were oral gavaged with 40 mg/kg SK-124, or intraperitonially injected with 80 μg/kg PTH, or treated with vehicle 5 days a week for the duration of the special diet.
cDNA was prepared using Primescript RT kit (Takara Inc), with 750 ng RNA per reaction. RT-qPCR was performed by using PerfeCa® SYBR® Green FAstMix® ROX (Quanta bio) in the StepOnePlus™ Real-time PCR System (Applied Biosystems). Hmbs was used as a control housekeeping gene for mouse samples, and B-Actin was used for organoids, relative expression was calculated (2^-deltaCT method) and compared to the mean of control group if necessary. Primers used for RT-qPCR are listed in Table 2 (mouse primers) and Table 3 (human primers).
Snap-frozen kidneys were homogenized in NP-40 lysis buffer (FNN0021, Thermo) with using TissueLyserII at 30 Hz for 5 minutes. Samples were rotated at 4 deg for 20 minutes and frozen on dry ice and thawed. After centrifuging for 30 minutes at 4 deg, the supernatants were collected. After determining the protein concentration by Bradford assay, […] of protein was loaded for western blotting. For KGli cells, the cells were washed with cold PBS then scraped into TNT buffer (Tris-NaCl-Tween buffer, 20 mM Tris-HCl pH 8, 200 mM NaCl, 0.5% Triton X-100 containing 1X-protease inhibitor cocktail (Bimake Inc. 100X, Cat. #B14001), 1 mM DTT, 1 mM NaF, 1 mM Vanadate (New England Biolabs)). Next, samples were vortexed for 1 minute and centrifuged at 14,000g for 6 minutes at 4 deg, and the supernatant was collected.
For immunoblotting, the lysates were separated by SDS-PAGE (Bio-rad precast gels), and proteins were transferred to the nitrocellulose membranes. Then, the membranes were blocked in 5% milk in tris-buffered saline plus 0.05% Tween-20 (TBST) and incubated with primary antibody in 5% BSA-TBST overnight at 4° C. Next day, after washing, membranes were incubated with anti-rabbit HRP-coupled secondary antibody (1:2500, Cell Signaling Technology, 7074S) or anti-mouse HRP-coupled secondary antibody (1:2500, Cell Signaling, 7076S), and signals were detected with SuperSignal West Femto Maximum Sensitivity Substrate (Thermo scientific) using the iBright imager (ThermoFisher). The antibodies used are: SIK2 (1:1000, Cell Signaling, 6919), GAPDH (1:1000, Cell Signaling, 2118), αSMA (1:1000, Invitrogen, 14-9760-82), pSMAD3 (1:1000, Cell Signaling, 9520), and SMAD⅔ (1:1000, Cell Signaling, 8685).
Hematoxylin and eosin (H+E) staining was performed on some sections using standard protocols and Masson's Trichome stain for fibrosis was performed according to the manufacturer's instructions (ab150686, abcam). Formalin-fixed paraffin embedded sections were also used for in situ hybridization according to the manufacturer instructions (ACDbio). Briefly, the sections were blocked with hydrogen peroxide for 10 minutes at room temperature, followed by antigen retrieval with Pepsin (R2283, Sigma-Aldrich) in humidified chamber in 40° C. HybEZ oven. The Sik1 (526411, ACD), Sik2 (526421, ACD), or Sik3 (526431, ACD) probe was added to the sections for 2 hours in the humidified chamber at 40° C. Then, the signal was amplified (322310, ACD) and detected using Brown DAB kit (322310, ACD). […]

[2] = system: mouse CKD kidneys and human kidney organoids; assay: overlap of injury-regulated genes rescued by SK-124 in mouse adenine diet and human cisplatin organoid studies; details: Venn overlap, both CKD models
Method: FIGS. 13A-13E. Transcriptomic effects of SK-124 in cisplatin-induced human kidney organoid model. RNA-seq was performed on kidney organoid RNA samples (n=4/group) from FIG. 8. Volcano plot show gene regulated (>2-fold change, p(adj)<0.05) by cisplatin (versus vehicle, A) or within cisplatin-treated organoids by SK-124 (versus DMSO control, B). In Volcano plot, representative fibrosis/injury markers (Col8a1, Fni, Serpinel) and proximal tubule integrity (Lrp2 and Hnf4a) are shown. Scatterplot (C) and heatmap (D) showing integration of individual RNA-seq comparisons.
Isolated RNA samples from the mouse adenine diet study and human kidney organoid experiment were submitted to Novogene and bulk-RNA sequencing on NovaSeq X Plus Ilumina Novoseq Platform. Sequencing reads were mapped to the mouse reference genome (mm10/GRCm38) or human reference genome (GRCh38/hg38) using Salmon and differential gene expression analysis was performed using DESeq2.

CCc1nnc(-c2c(OC)cc(-c3cnc4cc(-c5cnn(C)c5)ccn34)cc2OC)o1 [SK-124, 2-[2,6-Dimethoxy-4-[7-(1-methylpyrazol-4-yl)imidazo[1,2-a]pyridin-3-yl]phenyl]-5-ethyl-1,3,4-oxadiazole]
fibrosis (trichrome staining) ([1]; adenine diet, SK-124 40 mg/kg oral, 40 mg/kg): reduced fibrosis | αSMA protein ([1]; kidney lysates, immunoblot): reduced | Colla1 mRNA ([1]; whole kidney RNA, RT-qPCR): reduced | Vimentin (Vim) mRNA ([1]; whole kidney RNA, RT-qPCR): reduced | αSMA mRNA ([1]; whole kidney RNA, RT-qPCR): reduced | conserved genes induced with injury and reduced by SK-124 [2]: 419 genes | conserved genes suppressed by injury and restored by SK-124 [2]: 373 genes
